Reference: US11643388B2, “Inhibitors of alpha 2 beta 1 integrin and methods of use thereof” (The Regents of the University of California, priority 2020, dated 2023)
≈ marks a conversion by molar mass, not a printed value. Each block holds one compound with its values, some of them ahead of it.

Tests used:
Plasma stability (h) = type: in vitro ADME, human; details: % remaining at 60 min
α2β1 [1] = molecular target: T1, α2β1 (Homo sapiens, UniProt P05556+P17301); assay: α2β1 cell adhesion; type: cell-based
T1 sequence (P17301 30-1181): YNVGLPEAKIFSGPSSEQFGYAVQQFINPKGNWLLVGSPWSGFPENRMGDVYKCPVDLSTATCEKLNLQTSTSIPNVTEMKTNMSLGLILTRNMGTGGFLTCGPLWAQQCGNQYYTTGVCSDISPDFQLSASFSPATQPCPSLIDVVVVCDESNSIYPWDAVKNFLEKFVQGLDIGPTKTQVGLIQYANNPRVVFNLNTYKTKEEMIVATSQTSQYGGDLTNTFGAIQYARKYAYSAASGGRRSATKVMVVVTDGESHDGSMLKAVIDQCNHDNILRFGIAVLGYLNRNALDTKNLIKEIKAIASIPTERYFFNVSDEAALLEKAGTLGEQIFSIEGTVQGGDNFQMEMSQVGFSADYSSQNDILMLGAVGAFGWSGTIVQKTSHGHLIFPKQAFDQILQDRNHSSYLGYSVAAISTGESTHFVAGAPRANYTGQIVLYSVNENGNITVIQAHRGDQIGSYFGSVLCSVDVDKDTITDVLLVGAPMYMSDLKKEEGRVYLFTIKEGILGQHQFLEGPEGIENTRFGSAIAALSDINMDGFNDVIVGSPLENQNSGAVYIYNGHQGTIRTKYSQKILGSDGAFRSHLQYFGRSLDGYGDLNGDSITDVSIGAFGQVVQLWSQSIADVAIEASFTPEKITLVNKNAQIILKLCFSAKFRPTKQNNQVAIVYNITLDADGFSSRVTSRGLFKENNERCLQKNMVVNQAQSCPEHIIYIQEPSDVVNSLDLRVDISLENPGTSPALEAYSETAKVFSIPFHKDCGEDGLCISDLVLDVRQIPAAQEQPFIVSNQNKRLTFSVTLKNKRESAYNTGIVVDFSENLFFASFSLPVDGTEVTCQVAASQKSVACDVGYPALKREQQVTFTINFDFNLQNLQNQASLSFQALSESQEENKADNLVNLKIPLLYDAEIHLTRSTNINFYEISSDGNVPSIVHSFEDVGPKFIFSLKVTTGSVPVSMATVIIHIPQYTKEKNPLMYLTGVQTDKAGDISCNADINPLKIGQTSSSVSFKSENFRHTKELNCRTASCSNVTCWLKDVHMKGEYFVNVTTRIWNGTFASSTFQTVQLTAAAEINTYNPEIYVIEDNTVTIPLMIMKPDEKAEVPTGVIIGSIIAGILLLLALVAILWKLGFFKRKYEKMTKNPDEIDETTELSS
T1 sequence (P05556 21-798): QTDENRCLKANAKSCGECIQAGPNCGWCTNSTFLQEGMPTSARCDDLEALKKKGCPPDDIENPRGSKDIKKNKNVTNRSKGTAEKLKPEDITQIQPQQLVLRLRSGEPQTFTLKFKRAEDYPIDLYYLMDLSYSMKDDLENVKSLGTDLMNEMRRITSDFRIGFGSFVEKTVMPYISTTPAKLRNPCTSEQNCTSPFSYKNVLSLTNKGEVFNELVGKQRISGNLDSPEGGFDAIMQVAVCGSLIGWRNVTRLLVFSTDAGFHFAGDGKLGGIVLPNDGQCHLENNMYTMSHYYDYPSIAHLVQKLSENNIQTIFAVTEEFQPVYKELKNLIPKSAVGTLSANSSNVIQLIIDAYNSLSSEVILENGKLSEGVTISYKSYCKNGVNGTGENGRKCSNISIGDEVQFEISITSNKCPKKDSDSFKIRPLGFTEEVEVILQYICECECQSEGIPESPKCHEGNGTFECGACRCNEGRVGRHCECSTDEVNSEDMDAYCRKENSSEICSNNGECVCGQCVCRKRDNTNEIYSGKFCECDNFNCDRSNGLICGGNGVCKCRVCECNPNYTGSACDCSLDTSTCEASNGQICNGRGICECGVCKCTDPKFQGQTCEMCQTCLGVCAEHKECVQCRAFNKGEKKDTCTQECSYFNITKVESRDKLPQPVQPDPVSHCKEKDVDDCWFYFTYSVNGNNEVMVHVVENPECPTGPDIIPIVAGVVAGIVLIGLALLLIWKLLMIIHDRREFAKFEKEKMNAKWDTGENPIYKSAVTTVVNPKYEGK

Metabolic stability (h) = type: in vitro ADME, human; details: % remaining at 45 min
[2] = Kinetic solubility (aqueous); type: physicochemical; details: kinetic from dmso stock, read-out: Kinetic Solubility (Aq)
Caco-2 permeability = type: in vitro ADME; details: human; for Papp A→B: A-B direction; for Papp B→A: B-A direction
α4β1 = α4β1 (Homo sapiens, UniProt P05556+P13612); assay: α4β1 cell adhesion; type: cell-based
Sequence of α4β1 (P13612 34-1032): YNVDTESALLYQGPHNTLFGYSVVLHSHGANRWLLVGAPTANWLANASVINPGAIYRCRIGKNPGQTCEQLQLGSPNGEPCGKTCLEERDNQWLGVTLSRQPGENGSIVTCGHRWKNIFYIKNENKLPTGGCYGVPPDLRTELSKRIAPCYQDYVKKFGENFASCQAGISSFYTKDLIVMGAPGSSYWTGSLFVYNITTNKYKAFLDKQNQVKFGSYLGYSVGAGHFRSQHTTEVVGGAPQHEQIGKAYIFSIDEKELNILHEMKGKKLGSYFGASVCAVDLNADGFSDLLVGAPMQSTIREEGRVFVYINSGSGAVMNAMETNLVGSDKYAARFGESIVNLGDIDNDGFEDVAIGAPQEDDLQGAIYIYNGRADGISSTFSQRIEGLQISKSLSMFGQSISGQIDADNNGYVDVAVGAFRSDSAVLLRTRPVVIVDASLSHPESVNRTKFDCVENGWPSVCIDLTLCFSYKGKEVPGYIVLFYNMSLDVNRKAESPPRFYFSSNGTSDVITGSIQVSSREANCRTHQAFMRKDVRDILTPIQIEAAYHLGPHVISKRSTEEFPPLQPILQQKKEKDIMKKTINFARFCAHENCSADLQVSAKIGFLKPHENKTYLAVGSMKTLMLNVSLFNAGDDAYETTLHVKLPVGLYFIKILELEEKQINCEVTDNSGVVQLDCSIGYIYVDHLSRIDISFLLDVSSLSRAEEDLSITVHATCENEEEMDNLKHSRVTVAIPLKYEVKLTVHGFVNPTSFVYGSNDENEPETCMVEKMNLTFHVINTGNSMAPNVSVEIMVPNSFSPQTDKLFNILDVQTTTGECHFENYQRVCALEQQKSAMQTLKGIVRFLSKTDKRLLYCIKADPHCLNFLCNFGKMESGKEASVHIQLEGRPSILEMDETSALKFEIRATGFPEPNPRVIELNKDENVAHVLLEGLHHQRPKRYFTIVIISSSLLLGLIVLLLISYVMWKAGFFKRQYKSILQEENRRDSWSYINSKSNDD
Sequence of α4β1 (P05556 21-798): as the sequence (P05556 21-798) above

α2β1 [3] = molecular target: T1, α2β1; assay: α2β1 cell adhesion assay; type: cell-based

Plasma Stab(h) % rem/60 min (Plasma stability (h)): 85.84%
IC50 (α2β1 [1]): < 0.5 µM
Met Stab(h) % rem/45 min (Metabolic stability (h)): 72.3%
solubility kinetic [2]: 66.9 µM (≈ 40.4 µg/mL)
Papp A→B (Caco-2 permeability): 2.7 ×10⁻⁶ cm/s
Papp B→A (Caco-2 permeability): 20.1 ×10⁻⁶ cm/s
Compound: O=C(Cc1cccc(Cl)c1)Nc1ccc(Cl)c(C(=O)N[C@@H](CNC(=O)N[C@@H]2CCc3ccccc32)C(=O)O)c1Cl [SU15210-0099-01, (S)-2-(2,6-dichloro-3-(2-(3-chlorophenyl)acetamido)benzamido)-3-(3-((R)-2,3-dihydro-1H-inden-1-yl)ureido)propanoic Acid]

IC50 (α2β1 [1]): < 0.5 µM
IC50 (α4β1): 37 µM
Compound: O=C(NC[C@H](NC(=O)c1c(Cl)ccc(N2CC(c3ccccc3)C2)c1Cl)C(=O)O)N[C@@H]1CCc2ccccc21 [SU15210-0080-01, (S)-2-(2,6-dichloro-3-(3-phenylazetidin-1-yl)benzamido)-3-(3-((R)-2,3-dihydro-1H-inden-1-yl)ureido)propanoic Acid]

IC50 (α2β1 [3]): > 5 µM
Compound: O=C(NC[C@H](NC(=O)c1c(Cl)cc2c(c1Cl)CCN(Cc1ccc(Cl)cc1)C2=O)C(=O)O)N[C@@H]1CCc2ccccc21 [SU15210-0244-01]

IC50 (α2β1 [3]): < 0.5 µM
Compound: COc1cccc(CNC(=O)c2cc(Cl)c(C(=O)N[C@@H](CNC(=O)N[C@@H]3CCc4ccccc43)C(=O)O)c(Cl)c2)c1 [SU15210-0290-01, (S)-2-(2,6-dichloro-4-(3-methoxybenzylcarbamoyl)benzamido)-3-(3-((R)-2,3-dihydro-1H-inden-1-yl)ureido)propanoic Acid]

IC50 (α2β1 [3]): < 0.5 µM
Compound: O=C(NC[C@H](NC(=O)c1c(Cl)cc(C(=O)NCc2ccc(Cl)c(Cl)c2)cc1Cl)C(=O)O)N[C@@H]1CCc2ccccc21 [SU15210-0291, (S)-2-(2,6-dichloro-4-(3,4-dichlorobenzylcarbamoyl)benzamido)-3-(3-((R)-2,3-dihydro-1H-inden-1-yl)ureido)propanoic Acid]

IC50 (α2β1 [3]): < 0.5 µM
Compound: O=C(NC[C@H](NC(=O)c1c(Cl)cc(C(=O)NCc2cccc(F)c2)cc1Cl)C(=O)O)N[C@@H]1CCc2ccccc21 [SU15210-0289, (S)-2-(2,6-dichloro-4-(3-fluorobenzylcarbamoyl)benzamido)-3-(3-((R)-2,3-dihydro-1H-inden-1-yl)ureido)propanoic Acid]

IC50 (α2β1 [3]): 1 to 5 µM
Compound: CN(Cc1ccccc1)C(=O)NC[C@H](NC(=O)c1c(Cl)cc2c(c1Cl)CCN(CC1CC1)C2=O)C(=O)O [SU15210-0251, (2S)-3-[[benzyl(methyl)carbamoyl]amino]-2-[[5,7-dichloro-2-(cyclopropylmethyl)-1-oxo-3,4-dihydroisoquinoline-6-carbonyl]amino]propanoic Acid]

IC50 (α2β1 [3]): 0.5 to 1 µM
Compound: CCOC(=O)[C@H](CNC(=O)N(C)Cc1ccccc1)NC(=O)c1c(Cl)cc2c(c1Cl)CCN(Cc1cccc(Cl)c1)C2=O [SU15210-0270-01, (S)-ethyl 3-(3-benzyl-3-methylureido)-2-(5,7-dichloro-2-(3-chlorobenzyl)-1-oxo-1,2,3,4-tetrahydroisoquinoline-6-carboxamido)propanoate]

IC50 (α2β1 [1]): < 0.5 µM
Papp A→B (Caco-2 permeability): 2.2 ×10⁻⁶ cm/s
Papp B→A (Caco-2 permeability): 5.53 ×10⁻⁶ cm/s
Compound: O=C(NC[C@H](NC(=O)c1c(Cl)cc(C(=O)NCc2cccc(Cl)c2)cc1Cl)C(=O)O)N[C@@H]1CCc2ccccc21 [SU15210-0185-01, (S)-2-(2,6-dichloro-4-(3-chlorobenzylcarbamoyl)benzamido)-3-(3-((R)-2,3-dihydro-1H-inden-1-yl)ureido)propanoic Acid]

IC50 (α2β1 [1]): < 0.5 µM
Papp A→B (Caco-2 permeability): 2.2 ×10⁻⁶ cm/s
Papp B→A (Caco-2 permeability): 1.5 ×10⁻⁶ cm/s
Compound: CN(Cc1ccccc1)C(=O)NC[C@H](NC(=O)c1c(Cl)cc(C(=O)NCc2cccc(O)c2)cc1Cl)C(=O)O [SU15210-0186-01, (S)-3-(3-benzyl-3-methylureido)-2-(2,6-dichloro-4-(3-hydroxybenzylcarbamoyl)benzamido)propanoic Acid]

IC50 (α2β1 [3]): 0.5 to 1 µM
Compound: O=C(NC[C@H](NC(=O)c1c(Cl)cc(C(=O)NCc2cccc(Cl)c2)cc1Cl)C(=O)O)N[C@@H]1CCc2cc(Cl)ccc21 [SU15210-0294, (S)-3-(3-((R)-5-chloro-2,3-dihydro-1H-inden-1-yl)ureido)-2-(2,6-dichloro-4-(3-chlorobenzylcarbamoyl)benzamido)propanoic Acid]

IC50 (α2β1 [3]): < 0.5 µM
Compound: CN(Cc1ccccc1)C(=O)NC[C@H](NC(=O)c1c(Cl)cc2c(c1Cl)CCN(Cc1cccc(Cl)c1)C2=O)C(=O)O [SU15210-0242-01, (S)-3-(3-benzyl-3-methylureido)-2-(5,7-dichloro-2-(3-chlorobenzyl)-1-oxo-1,2,3,4-tetrahydroisoquinoline-6-carboxamido)propanoic Acid]

IC50 (α2β1 [1]): < 0.5 µM
IC50 (α4β1): 83.9 µM
Compound: CN(Cc1ccccc1)C(=O)NC[C@H](NC(=O)c1c(Cl)cccc1Cl)C(=O)O [SU15210-0167-01]

IC50 (α2β1 [3]): > 5 µM
Compound: O=C(NC[C@H](NC(=O)c1c(Cl)cc2c(c1Cl)CCN(Cc1cccc(Cl)c1)C2=O)C(=O)O)N[C@@H]1CCc2ccccc21 [SU15210-0243-01, (2S)-2-[[5,7-dichloro-2-[(3-chlorophenyl)methyl]-1-oxo-3,4-dihydroisoquinoline-6-carbonyl]amino]-3-[[(1R)-indan-1-yl]carbamoylamino]propanoic Acid]

IC50 (α2β1 [3]): < 0.5 µM
Compound: O=C(NC[C@H](NC(=O)c1c(Cl)cc(C(=O)NCc2cccc(C(F)(F)F)c2)cc1Cl)C(=O)O)N[C@@H]1CCc2ccccc21 [SU15210-0293, (S)-2-(2,6-dichloro-4-(3-(trifluoromethyl)benzylcarbamoyl)benzamido)-3-(3-((R)-2,3-dihydro-1H-inden-1-yl)ureido)propanoic Acid]

IC50 (α2β1 [3]): > 5 µM
Compound: CN(Cc1ccccc1)C(=O)NC[C@H](NC(=O)c1c(Cl)cc2c(c1Cl)CCN(CC#CC1CC1)C2=O)C(=O)O [SU15210-0265, (S)-3-(3-benzyl-3-methylureido)-2-(5,7-dichloro-2-(3-cyclopropylprop-2-ynyl)-1-oxo-1,2,3,4-tetrahydroisoquinoline-6-carboxamido)propanoic Acid]

IC50 (α2β1 [1]): < 0.5 µM
IC50 (α4β1): 21 µM
Compound: O=C(CCc1ccccc1)Nc1ccc(Cl)c(C(=O)N[C@@H](CNC(=O)N[C@@H]2CCc3ccccc32)C(=O)O)c1Cl [SU15210-0124-01, (S)-2-(2,6-dichloro-3-(3-phenylpropanamido)benzamido)-3-(3-((R)-2,3-dihydro-1H-inden-1-yl)ureido)propanoic Acid]

IC50 (α2β1 [1]): < 0.5 µM
IC50 (α4β1): 32.3 µM
Compound: O=C(NC[C@H](NC(=O)c1c(Cl)ccc(NCCCc2ccccc2)c1Cl)C(=O)O)N[C@@H]1CCc2ccccc21 [SU15210-0098-01, (S)-2-(2,6-dichloro-3-(3-phenylpropylamino)benzamido)-3-(3-((R)-2,3-dihydro-1H-inden-1-yl)ureido)propanoic Acid]

Plasma Stab(h) % rem/60 min (Plasma stability (h)): 99.4%
IC50 (α2β1 [1]): < 0.5 µM
Met Stab(h) % rem/45 min (Metabolic stability (h)): 99.6%
Papp A→B (Caco-2 permeability): 3.2 ×10⁻⁶ cm/s
Papp B→A (Caco-2 permeability): 1.6 ×10⁻⁶ cm/s
IC50 (α4β1): 21.1 µM
Compound: O=C(NC[C@H](NC(=O)c1c(Cl)cc(C(=O)NCc2cccc(O)c2)cc1Cl)C(=O)O)N[C@@H]1CCc2ccccc21 [SU15210-0095-01, (S)-2-(2,6-dichloro-4-(3-hydroxybenzylcarbamoyl)benzamido)-3-(3-((R)-2,3-dihydro-1H-inden-1-yl)ureido)propanoic Acid]

Plasma Stab(h) % rem/60 min (Plasma stability (h)): 55.6%
IC50 (α2β1 [1]): < 0.5 µM
Met Stab(h) % rem/45 min (Metabolic stability (h)): 96.3%
Papp A→B (Caco-2 permeability): 0.2 ×10⁻⁶ cm/s
Papp B→A (Caco-2 permeability): 24.2 ×10⁻⁶ cm/s
IC50 (α4β1): 2.9 µM
Compound: O=C(NC[C@H](NC(=O)c1c(Cl)ccc(Nc2ncc3ccccc3n2)c1Cl)C(=O)O)N[C@@H]1CCc2ccccc21 [SU15210-0076-01, (S)-2-(2,6-dichloro-3-(quinazolin-2-ylamino)benzamido)-3-(3-((R)-2,3-dihydro-1H-inden-1-yl)ureido)propanoic Acid]

Plasma Stab(h) % rem/60 min (Plasma stability (h)): 108%
IC50 (α2β1 [1]): < 0.5 µM
Met Stab(h) % rem/45 min (Metabolic stability (h)): 65%
Papp A→B (Caco-2 permeability): 0.8 ×10⁻⁶ cm/s
Papp B→A (Caco-2 permeability): 6.8 ×10⁻⁶ cm/s
Compound: O=C(NC[C@H](NC(=O)c1c(Cl)cc2c(c1Cl)CCN(C(=O)c1ccccc1)C2)C(=O)O)N[C@@H]1CCc2ccccc21 [SU15210-0173-01]

IC50 (α2β1 [3]): 1 to 5 µM
Compound: CCOC(=O)[C@H](CNC(=O)N[C@@H]1CCc2ccccc21)NC(=O)c1c(Cl)cc(C(=O)NCc2cccc(Cl)c2)cc1Cl [SU15210-0280, (S)-ethyl 2-(2,6-dichloro-4-(3-chlorobenzylcarbamoyl)benzamido)-3-(3-((R)-2,3-dihydro-1H-inden-1-yl)ureido)propanoate]

IC50 (α2β1 [3]): < 0.5 µM
Compound: N#Cc1cccc(CNC(=O)c2cc(Cl)c(C(=O)N[C@@H](CNC(=O)N[C@@H]3CCc4ccccc43)C(=O)O)c(Cl)c2)c1 [SU15210-0292, (S)-2-(2,6-dichloro-4-(3-cyanobenzylcarbamoyl)benzamido)-3-(3-((R)-2,3-dihydro-1H-inden-1-yl)ureido)propanoic Acid]

IC50 (α2β1 [3]): > 5 µM
Compound: CN(Cc1ccccc1)C(=O)NC[C@H](NC(=O)c1c(Cl)cc2c(c1Cl)CCN(Cc1ccccc1)C2=O)C(=O)O [SU15210-0245-01, (2S)-2-[(2-benzyl-5,7-dichloro-1-oxo-3,4-dihydroisoquinoline-6-carbonyl)amino]-3-[[benzyl(methyl)carbamoyl]amino]propanoic Acid]
